In patent US8476197B2, “Aminopropenoates as fungicides” (priority 2009, dated 2013):
Where two headings read alike, the source gives them in different places. Marks after values point to notes of the source that are not given here.

SMILES | Log P (pH 2.7) | Log P (pH 2.3) | Log P (pH 7.5)
CCOC(=O)C(C#N)=C(NC(C)C1CC1)c1sccc1C(F)(F)F (stereo not drawn) [Compound 883] | 3.83^[a] |  | 
COC(=O)C(C#N)=C(NC(C)C1CC1)c1sc(C)nc1C(F)(F)F (stereo not drawn) [Compound 884] | 3.27^[a] |  | 
CCOC(=O)C(C#N)=C(NC(C)C1CC1)c1sccc1Br (stereo not drawn) [Compound 885] | 3.76^[a] |  | 
CCOC(=O)C(C#N)=C(NC(C)C1CC1)c1sc(C)nc1C(F)(F)F (stereo not drawn) [Compound 886] | 3.61^[a] |  | 
CCOC(=O)C(C#N)=C(NC(C)C1CC1)c1cc(Cl)sc1Cl (stereo not drawn) [Compound 887] | 4.36^[a] |  | 
CCOC(=O)C(C#N)=C(NC(C)C1CC1)c1nc(Cl)ccc1Cl (stereo not drawn) [Compound 888] | 3.73^[a] |  | 
CCOC(=O)C(C#N)=C(NC(C)C1CC1)c1ncc(Cl)cc1Cl (stereo not drawn) [Compound 889] | 3.8^[a] |  | 
CCOC(=O)C(C#N)=C(NC(C)C1CC1)c1cnc(Cl)cc1Cl (stereo not drawn) [Compound 890] | 3.64^[a] |  | 
CCOC(=O)C(C#N)=C(NC(C)C1CC1)c1cn(C)nc1OC (stereo not drawn) [Compound 891] | 2.8^[a] |  | 
CCOC(=O)C(C#N)=C(NC(C)C1CC1)c1cccnc1C(F)(F)F (stereo not drawn) [Compound 892] | 3.35^[a] |  | 
CCOC(=O)C(C#N)=C(NC(C)C1CC1)c1sc(Cl)nc1Cl (stereo not drawn) [Compound 893] | 3.87^[a] |  | 
CCOC(=O)C(C#N)=C(NC(C)C1CC1)c1cccnc1Cl (stereo not drawn) [Compound 909] | 3.1^[a] |  | 
CCOC(=O)C(C#N)=C(NC(C)C1CC1)c1cccnc1Cl (stereo not drawn) [Compound 910] | 3.1^[a] |  | 
CCOC(=O)C(C#N)=C(NC(C)C(C)(C)C)c1cccnc1Cl (stereo not drawn) [Compound 924] | 3.6^[a] |  | 
CCOC(=O)C(C#N)=C(NC(C)CCCC(C)C)c1cn(C)nc1C(F)F (stereo not drawn) [Compound 925] | 4.26^[a] |  | 
CCOC(=O)C(C#N)=C(NC(C)CCCC(C)C)c1sccc1C(F)(F)F (stereo not drawn) [Compound 926] | 5.39^[a] |  | 
COC(=O)C(C#N)=C(NC(C)CCCC(C)C)c1sc(C)nc1C(F)(F)F (stereo not drawn) [Compound 927] | 4.78^[a] |  | 
CCOC(=O)C(C#N)=C(NC(C)CCCC(C)C)c1sccc1Br (stereo not drawn) [Compound 928] | 5.36^[a] |  | 
CCOC(=O)C(C#N)=C(NC(C)CCCC(C)C)c1sc(C)nc1C(F)(F)F (stereo not drawn) [Compound 929] | 5.14^[a] |  | 
CCOC(=O)C(C#N)=C(NC(C)CCCC(C)C)c1ccsc1Br (stereo not drawn) [Compound 930] | 5.32^[a] |  | 
COC(=O)C(C#N)=C(NC(C)C(C)C)c1cccnc1Cl (stereo not drawn) [Compound 931] | 2.76 | 3 | 2.83

SMILES | Log P (pH 2.7) | Log P (pH 2.3) | Log P (pH 7.5)
COC(=O)C(C#N)=C(NC(C)C(C)C)c1cccnc1Cl (stereo not drawn) [Compound 932] |  |  | 2.85
CCOC(=O)C(C#N)=C(NC(C)C(C)C)c1cn(C)nc1C(F)F (stereo not drawn) [Compound 933] | 3.13^[a] |  | 
CCOC(=O)C(C#N)=C(NC(C)C(C)C)c1cccnc1Cl (stereo not drawn) [Compound 934] |  |  | 3.21
CCOC(=O)C(C#N)=C(NC(C)C(C)C)c1ncc(C(F)(F)F)cc1Cl (stereo not drawn) [Compound 935] | 4.29^[a] |  | 
CCOC(=O)C(C#N)=C(NC(C)C(C)C)c1c(C)nn(C)c1F (stereo not drawn) [Compound 936] | 3.19^[a] |  | 
CCOC(=O)C(C#N)=C(NC(C)C(C)C)c1nsc(Cl)c1Cl (stereo not drawn) [Compound 937] | 4.39^[a] |  | 
COC(=O)C(C#N)=C(NC(C)C(C)C)c1cn(C)nc1C(F)F (stereo not drawn) [Compound 938] | 2.8^[a] |  | 
CCOC(=O)C(C#N)=C(NC(C)C(C)C)c1cn(C)nc1C(F)(F)F (stereo not drawn) [Compound 939] | 3.64^[a] |  | 
CCOC(=O)C(C#N)=C(NC(C)C(C)C)c1conc1C (stereo not drawn) [Compound 940] | 3.15^[a] |  | 
CCOC(=O)C(C#N)=C(NC(C)C(C)C)c1sccc1Br (stereo not drawn) [Compound 941] | 4.12^[a] |  | 
COC(=O)C(C#N)=C(NC(C)C(C)C)c1cccnc1Br (stereo not drawn) [Compound 942] |  | 3.02 | 2.88
CCOC(=O)C(C#N)=C(NC(C)C(C)C)c1c(C)nn(C)c1Cl (stereo not drawn) [Compound 943] | 3.67^[a] |  | 
CCOC(=O)C(C#N)=C(NC(C)C(C)C)c1sccc1C(F)(F)F (stereo not drawn) [Compound 944] | 4.21^[a] |  | 
CCOC(=O)C(C#N)=C(NC(C)C(C)C)c1ccsc1Br (stereo not drawn) [Compound 945] | 4.1^[a] |  | 
CC(C)OC(=O)C(C#N)=C(NC(C)C(C)C)c1cccnc1Cl (stereo not drawn) [Compound 946] |  |  | 3.69
CCOC(=O)C(C#N)=C(NC(C)C(C)C)c1cc(C)oc1C (stereo not drawn) [Compound 947] | 3.99^[a] |  | 
COC(=O)C(C#N)=C(NC(C)C(C)C)c1sc(C)nc1C(F)(F)F (stereo not drawn) [Compound 948] | 3.63^[a] |  | 
CCOC(=O)C(C#N)=C(NC(C)C(C)C)c1sc(C)nc1C(F)(F)F (stereo not drawn) [Compound 949] | 3.95^[a] |  | 
CCOC(=O)C(C#N)=C(NC(C)C(C)C)c1ccc(C)nc1Cl (stereo not drawn) [Compound 950] |  |  | 3.63
CCOC(=O)C(C#N)=C(NC(C)C(C)C)c1sccc1Cl (stereo not drawn) [Compound 951] | 4.08^[a] |  | 
CCOC(=O)C(C#N)=C(NC(C)C(C)C)c1cccnc1Cl (stereo not drawn) [Compound 952] | 3.37 |  | 3.33

SMILES | Log P (pH 2.7) | Log P (pH 2.3) | Log P (pH 7.5)
CCOC(=O)C(C#N)=C(NC(C)C(C)C)c1cccnc1C (stereo not drawn) [Compound 953] |  | 2.63 | 2.89
CCOC(=O)C(C#N)=C(NC(C)C(C)C)c1c(C(F)F)nn(C)c1Cl (stereo not drawn) [Compound 954] | 3.63^[a] |  | 
C=CCOC(=O)C(C#N)=C(NC(C)C(C)C)c1cccnc1Cl (stereo not drawn) [Compound 955] | 3.55 |  | 3.49
CC(C)C(C)NC(=C(C#N)C(=O)O)c1cccnc1Cl (stereo not drawn) [Compound 956] | 2.2^[a] |  | 
CCNC(=O)C(C#N)=C(NC(C)C(C)C)c1cccnc1Cl (stereo not drawn) [Compound 958] | 2.94 |  | 
CONC(=O)C(C#N)=C(NC(C)C(C)C)c1cccnc1Cl (stereo not drawn) [Compound 960] |  | 2.31 | 2.26
CCOC(=O)C(C#N)=C(NC(C)C(C)C)c1cccnc1OC (stereo not drawn) [Compound 961] |  | 3.52^[c]; 3.52^[b] | 3.52^[c]; 3.52^[b]
C=CCOC(=O)C(C#N)=C(NC(C)C(C)C)c1sccc1Br (stereo not drawn) [Compound 962] | 4.34^[a] |  | 
CC(C)C(C)NC(=C(C#N)C(=O)O)c1sccc1Br (stereo not drawn) [Compound 964] | 2.74^[a] |  | 
CCOC(=O)C(C#N)=C(NC(C)C(C)C)c1cc(Cl)sc1Cl (stereo not drawn) [Compound 965] | 4.72^[a] |  | 
CCOC(=O)C(C#N)=C(NC(C)C(C)C)c1nc(Cl)ccc1Cl (stereo not drawn) [Compound 966] | 4.06^[a] |  | 
CCOC(=O)C(C#N)=C(NC(C)C(C)C)c1ncc(Cl)cc1Cl (stereo not drawn) [Compound 967] | 4.19^[a] |  | 
CCOC(=O)C(C#N)=C(NC(C)C(C)C)c1cnc(Cl)cc1Cl (stereo not drawn) [Compound 968] | 3.96^[a] |  | 
CCOC(=O)C(C#N)=C(NC(C)C(C)C)c1cn(C)nc1OC (stereo not drawn) [Compound 969] | 3.06^[a] |  | 
CCOC(=O)C(C#N)=C(NC(C)C(C)C)c1cccnc1C(F)(F)F (stereo not drawn) [Compound 970] | 3.62^[a] |  | 
C=Cc1nn(C)cc1C(NC(C)C(C)C)=C(C#N)C(=O)OCC (stereo not drawn) [Compound 971] | 3.06^[a] |  | 
CCOC(=O)C(C#N)=C(NC(C)C(C)C)c1nc(SC)ncc1Br (stereo not drawn) [Compound 972] | 4.26^[a] |  | 
CCOC(=O)C(C#N)=C(NC(C)C(C)C)c1sc(Cl)nc1Cl (stereo not drawn) [Compound 973] | 4.23^[a] |  | 
CCOC(=O)C(C#N)=C(NC(C)C(C)C)c1cccnc1-c1ccc(Cl)cc1 (stereo not drawn) [Compound 974] |  | 4.09 | 4.08
CCOC(=O)C(C#N)=C(NC(C)C(C)C)c1cccnc1-c1cc(Cl)cc(Cl)c1 (stereo not drawn) [Compound 975] |  | 4.68 | 4.67
C=Cc1ncccc1C(NC(C)C(C)C)=C(C#N)C(=O)OCC (stereo not drawn) [Compound 976] |  | 3.24 | 3.26

SMILES | Log P (pH 2.7) | Log P (pH 2.3) | Log P (pH 7.5)
CCOC(=O)C(C#N)=C(NC(C)C(C)C)c1cc(Cl)ncc1Cl (stereo not drawn) [Compound 977] | 3.96^[a] |  | 
CCOC(=O)C(C#N)=C(NC(C)C(C)C)c1ccncc1Cl (stereo not drawn) [Compound 978] | 3.29^[a] |  | 
CCOC(=O)C(C#N)=C(NC(C)C(C)C)c1cccnc1C(C)=O (stereo not drawn) [Compound 980] |  | 3.11 | 3.08
CCOC(=O)C(C#N)=C(NC(C)C(C)C)c1cccnc1C(F)F (stereo not drawn) [Compound 981] | 3.15^[a] |  | 
CCOC(=O)C(C#N)=C(NC(C)C(C)C)c1cnccc1C(F)(F)F (stereo not drawn) [Compound 982] | 3.5^[a] |  | 
CCOC(=O)C(C#N)=C(NC(C)C(C)C)c1cc(Cl)cc(Cl)n1 (stereo not drawn) [Compound 983] | 4.26^[a] |  | 
CCOC(=O)C(C#N)=C(NC(C)C(C)C)c1cccnc1Cl (stereo not drawn) [Compound 984] | 3.33 | 3.22 | 3.22
CCOC(=O)C(C#N)=C(NC(C)C(C)C)c1cccnc1C(C)=NO (stereo not drawn) [Compound 985] |  | 2.69 | 2.67
CCOC(=O)C(C#N)=C(NC(C)C(C)C)c1ccc(Cl)nc1Cl (stereo not drawn) [Compound 986] |  | 3.85^[c]; 3.85^[b] | 3.85^[c]; 3.85^[b]
CCCNC(=O)C(C#N)=C(NC(C)C(C)C)c1cccnc1Cl (stereo not drawn) [Compound 988] |  | 3.24 | 3.22
CNC(=O)C(C#N)=C(NC(C)C(C)C)c1cccnc1Cl (stereo not drawn) [Compound 989] |  | 2.41^[c]; 2.41^[b] | 2.41^[c]; 2.41^[b]
CC(C)C(C)NC(=C(C#N)C(=O)On1nnc2ccccc21)c1cccnc1Cl (stereo not drawn) [Compound 990] |  | 3.22 | 3.21
C#CCNC(=O)C(C#N)=C(NC(C)C(C)C)c1cccnc1Cl (stereo not drawn) [Compound 991] |  | 2.69 | 2.68
CC(C)C(C)NC(=C(C#N)C(=O)NCC(F)(F)F)c1cccnc1Cl (stereo not drawn) [Compound 992] |  | 3.17 | 3.16
CC(C)C(C)NC(=C(C#N)C(N)=O)c1cccnc1Cl (stereo not drawn) [Compound 993] |  | 1.97 | 1.96
CCOC(=O)C(C#N)=C(NC(C)C(C)C)c1ccnc(Cl)c1Cl (stereo not drawn) [Compound 994] | 3.92^[a] |  | 
CCOC(=O)C(C#N)=C(NC(C)C(C)C)c1ccncc1Br (stereo not drawn) [Compound 996] | 3.33^[a] |  | 
CCOC(=O)C(C#N)=C(NC(C)C(C)C)c1ccncc1F (stereo not drawn) [Compound 997] | 3.08^[a] |  | 
C=CCOC(=O)C(C#N)=C(NC(C)C(C)C)c1cn(C)nc1C(F)F (stereo not drawn) [Compound 998] | 3.31^[a] |  | 
CCOC(=O)C(C#N)=C(NC(C)C(C)C)c1c(C(F)(F)F)nn(C)c1F (stereo not drawn) [Compound 999] | 3.93^[a] |  | 
